Like-named read-outs stand apart in the source and are kept apart here.
Experiments:
[1] = system: IRE1α; assay: IRE1α XBP1 splicing luciferase reporter, HEK293 cells; format: cell-based, human; conditions: for COX-2-dependent stimulation of XBP1 mRNA splicing (IRE1α activity): HEK293, COX-2 siRNA vs scrambled, 24 hours, thapsigargin 0.5 µM, tunicamycin 5 µg/ml, DTT 1 mM, n = 16, Fig. 1D
Protocol: HEK293 cells (human embryonic kidney cells; https://web.expasy.org/cellosaurus/CVCL_0045) were maintained under standard tissue culture conditions, including 5% CO2 with high humidity. Tissue culture media included 10% fetal bovine serum in DMEM (Sigma). Cell transfection, analysis of cell viability and luciferase assays were carried out as described previously.
The pRL-IXFL XBP1 splicing reporter was a generous gift from Dr. R. Kaufman (Sanford Burnham Medical Discovery Institute) and contains an internal Renilla control and the nucleotide sequence encoding XBP1 followed by firefly luciferase separated by an internal ribosomal entry site (IRES) initiation region. This reporter will only generate firefly luciferase if the XBP1 sequence is spliced, bringing the firefly luciferase sequence to the correct reading frame.

[2] = molecular target: T1, IRE1-NLD (ER luminal domain of IRE1α) (Homo sapiens, UniProt O75460); assay: SPR, binding to immobilized IRE1-NLD; conditions: CM5 chip, 10 mM Hepes pH 7.4, 150 mM NaCl, 0.005% P20, 30 μl/min, triplicate, 10 µM COX-2, BiP, PDIA6 flowed
T1 construct: the ER luminal domain of IRE1α (IRE1-NLD); His6 (C); KDEL (ER retention signal) (C); made in house; host or cells: COS-1 cells
T1 sequence (O75460 19-443 limits assumed): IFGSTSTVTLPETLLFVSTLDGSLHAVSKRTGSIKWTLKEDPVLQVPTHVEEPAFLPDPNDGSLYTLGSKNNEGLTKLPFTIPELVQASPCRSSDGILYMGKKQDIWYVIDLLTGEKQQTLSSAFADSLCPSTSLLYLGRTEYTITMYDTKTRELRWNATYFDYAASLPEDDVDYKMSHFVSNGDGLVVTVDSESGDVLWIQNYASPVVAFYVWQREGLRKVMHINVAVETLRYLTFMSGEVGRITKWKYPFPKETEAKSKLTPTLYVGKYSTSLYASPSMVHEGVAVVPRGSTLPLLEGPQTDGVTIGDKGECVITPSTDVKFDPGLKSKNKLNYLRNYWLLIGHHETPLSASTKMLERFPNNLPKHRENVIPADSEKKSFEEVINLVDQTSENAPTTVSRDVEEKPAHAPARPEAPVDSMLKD
Protocol: Briefly, a CM5 chip was activated using a 1:1 dilution of EDC:NHS as previously described. Purified protein was diluted in 10 mM NaAc, pH 5 and injected over the activated CM5 chip followed by the blocking solution of 1 M ethanolamine, pH 9. A reference lane with no ligand coupled was generated to subtract background binding. The running buffer was composed of 10 mM Hepes, pH 7.2, 150 mM NaCl, 1 mM EDTA, 0.005% P20, and 2% ethanol. […] For each experiment, the signal was corrected against the control surface response to eliminate any refractive index changes due to buffer change. The data were collected at 25 °C at a flow rate of 30 µl/min to minimize mass transfer effects. Positive (cyclophilin) and negative controls (carbonic anhydrase) were included. Kinetic analysis was performed using the BiaEvaluation software (GE Life Sciences) with a 1:1 Langmuir binding model. Association and dissociation rates and affinity (KD) were calculated for each experiment and averaged. The binding response signals in RUs were continuously recorded and presented graphically as a function of time. For SPR analysis of COX-2 interaction with IRE1-NLD, the carboxymethylated dextran (CMD) surface of a CM5 chip was activated using a 1:1 dilution of EDC:NHS as previously described. Purified IRE1-NLD was captured at a flow rate of 5 μl/min to a total of ~1500 Response Units (RU). […]

[3] = system: IRE1-NLD; assay: MST, COX-2 titrated to RED-labeled IRE1-NLD; format: binding; conditions: red labelled IRE1-NLD, Suppl. Fig. S9
Protocol: (§1) MST was carried out using a Monolith NT.115 instrument (NanoTemper). To evaluate COX-2 binding to IRE1-NLD, an increasing concentration of purified COX-2 protein (0–10 µM) was incubated with RED-labeled purified IRE1-NLD protein (NanoTemper; as per manufacturer’s protocol). The reverse was also performed, with RED-labeled purified COX-2 incubated with an increasing concentration of purified IRE1-NLD. Positive (cyclophilin A) and negative controls (carbonic anhydrase) were included. […] Positive (cyclophilin A) and negative controls (carbonic anhydrase) were included. […] Experiments were done in triplicate and data evaluation was performed using the Monolith software (NanoTemper).

[4] = system: IRE1α; assay: Co-immunoprecipitation of endogenous COX-2 and IRE1α, HEK293 cells; format: binding, human; conditions: HEK293, triplicate, Fig. 5A
Protocol: For immunoprecipitation experiments, HEK293 (endogenous IRE1α) or COS-1 cells transfected with the pED-IRE1-NLD-His6-KDEL expression vector were harvested by washing with cold Tris-buffered saline followed by scraping into cold lysis buffer (25 mM Tris-Cl, pH 8.0, 150 mM NaCl, 0.5% Nonidet P-40, and 0.5% sodium deoxycholate). The lysate was incubated on ice for 30 min followed by centrifugation and 30 min incubation at 4 °C with 60 µl of 10% slurry of Protein A/G Sepharose beads (Qiagen) to preclear the lysate. The beads were centrifuged briefly to pellet and washed with five times of cold lysis buffer while the supernatant was transferred to a new Eppendorf tube. For immunoprecipitation of IRE1α, IRE1-NLD or COX-2, 2 µl of anti-IRE1α, anti-His-tag antibodies, COX-2 antibody or an IgG control were added to the supernatant and incubated with rotation overnight at 4 °C. To pull-down the antibody, 100 µl of 10% slurry of Protein A/G Sepharose beads was added and the lysate was incubated 4 hours with rotation at 4 °C. The beads were centrifuged briefly to pellet and washed five times with 1 ml cold lysis buffer. The beads were pelleted, re-suspended in 100 µl SDS-PAGE sample buffer, with 20 µl separated on SDS-PAGE (10% acrylamide), followed by Immunoblot analysis using anti-IRE1α, anti-COX-2, or anti-His-tag antibodies. Experiments were done in triplicate.

[5] = molecular target: T2, COX-2 (Homo sapiens, UniProt P35354); format: binding
T2 construct: COX-2 cDNA was purchased from OriGene and cloned into pET-22b containing a 6His-tag; 6His; made in house; host or cells: LEMO21 E. coli
T2 sequence (P35354 18-604): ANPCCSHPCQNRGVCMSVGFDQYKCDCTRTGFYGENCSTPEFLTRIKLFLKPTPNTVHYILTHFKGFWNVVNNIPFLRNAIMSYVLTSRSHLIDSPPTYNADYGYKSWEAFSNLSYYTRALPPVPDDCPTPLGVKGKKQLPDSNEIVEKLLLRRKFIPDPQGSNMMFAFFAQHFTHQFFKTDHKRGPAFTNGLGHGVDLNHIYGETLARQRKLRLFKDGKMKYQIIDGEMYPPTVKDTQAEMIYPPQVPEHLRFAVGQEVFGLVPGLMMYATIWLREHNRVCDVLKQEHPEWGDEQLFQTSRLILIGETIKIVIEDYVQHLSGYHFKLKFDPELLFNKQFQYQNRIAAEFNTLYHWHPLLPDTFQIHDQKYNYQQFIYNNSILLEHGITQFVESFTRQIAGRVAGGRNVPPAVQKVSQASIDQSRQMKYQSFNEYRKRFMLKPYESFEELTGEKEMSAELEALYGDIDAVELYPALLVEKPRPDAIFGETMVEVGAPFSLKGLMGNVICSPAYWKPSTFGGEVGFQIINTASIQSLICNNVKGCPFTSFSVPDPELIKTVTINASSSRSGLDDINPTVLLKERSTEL
Protocol: as §1

[6] = system: COX-2 peroxidase; conditions: stated without reference; cited from earlier work
Text: Next, we carried out XBP1 splicing reporter assays in the presence of inhibitors of COX-2 cyclooxygenase or peroxidase activity.

## O[C@@H](CS)[C@@H](O)CS [DTT]
[1]
  COX-2-dependent stimulation of XBP1 mRNA splicing (IRE1α activity): did not have any effect on COX-2-dependent stimulation of XBP1 mRNA splicing

## Cc1ccc(-c2cc(C(F)(F)F)nn2-c2ccc(S(N)(=O)=O)cc2)cc1 [celecoxib]
[1]
  XBP1 splicing reporter activity with COX-2 inhibitor: had no effect on the XBP1 splicing activity in the absence or presence of COX-2 silencing

## C/C=C(/C)C(=O)O[C@H]1C(C)=C2[C@H]([C@@H]1OC(=O)CCCCCCC)[C@@](C)(OC(C)=O)C[C@H](OC(=O)CCC)[C@@]1(O)[C@H]2OC(=O)[C@@]1(C)O [thapsigargin]
[1]
  COX-2-dependent stimulation of XBP1 mRNA splicing (IRE1α activity): did not have any effect on COX-2-dependent stimulation of XBP1 mRNA splicing

## COX-2: purified COX-2 protein, 6His-tag, expressed in LEMO21 E. coli cells
[2]
  Kd: 880 nM
[3]
  binding to IRE1-NLD (MST), wild-type and H374Y: bound to IRE1-NLD
[4]
  co-immunoprecipitation with endogenous IRE1α: co-immunoprecipitated with endogenous IRE1α

## sodium ortho-vanadate
[1]; 20 μM cyclosporine + inhibitor, in absence or presence of COX-2 silencing, Suppl. Fig. S5B
  XBP1 splicing reporter activity with COX-2 inhibitor: significant reduction of XBP1 splicing in the presence of COX-2, but not when COX-2 was silenced
[5]
  effect on cyclosporine binding to COX-2: not affected
[6]
  COX-2 peroxidase inhibition: an inhibitor of COX-2 peroxidase activity

## tunicamycin
[1]
  COX-2-dependent stimulation of XBP1 mRNA splicing (IRE1α activity): did not have any effect on COX-2-dependent stimulation of XBP1 mRNA splicing

Source: paper PMC6232179 (Scientific Reports, 2018)
